Reference: patent US20060079696A1, “Substituted compounds derived from N-(benzyl)phenylacetamide, preparation and uses” (GENFIT, priority 2004, published 2006)

Columns and labels:
hPPARγ = biological target: T1, hPPARγ (Homo sapiens, UniProt P37231); assay: Gal4-hPPARγ chimera transactivation in COS-7 cells (luciferase); type: cell-based; conditions: induction factor standardised to an internal reference, read-out: % hGal4-PPAR transactivation (10 μM) gamma
T1 construct: fragments of DNA amplified by PCR corresponding to the DEF domains of the human PPARα, PPARγ PPARδ nuclear receptors; expressed in transfected cells; host or cells: COS-7 (monkey kidney fibroblast line)
T1 sequence (P37231 238-503 limits assumed): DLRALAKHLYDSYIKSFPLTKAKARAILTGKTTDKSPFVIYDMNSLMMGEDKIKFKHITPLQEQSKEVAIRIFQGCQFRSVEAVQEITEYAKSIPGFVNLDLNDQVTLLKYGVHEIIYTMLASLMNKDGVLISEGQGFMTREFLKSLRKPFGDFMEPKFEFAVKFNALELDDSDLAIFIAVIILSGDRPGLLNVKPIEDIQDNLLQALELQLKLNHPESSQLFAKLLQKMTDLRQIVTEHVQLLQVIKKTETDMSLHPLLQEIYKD
Procedure, shortened: (§1)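 COS-7 cells transiently transfected with Gal4-DBD/human PPAR DEF-domain chimeras plus Gal4(RE)_TkpGL3 luciferase reporter (1/10 ratio), then exposed 24 h serum-free to compound at 10 μM. Luciferase induction factor over control, normalised to an internal reference per isoform, expressed as percent activation.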

hPPARδ = biological target: T2, hPPARδ (Homo sapiens, UniProt Q03181); assay: Gal4-hPPARδ chimera transactivation in COS-7 cells (luciferase); type: cell-based; conditions: induction factor standardised to an internal reference, read-out: % hGal4-PPAR transactivation (10 μM) delta
T2 construct: fragments of DNA amplified by PCR corresponding to the DEF domains of the human PPARα, PPARγ PPARδ nuclear receptors; expressed in transfected cells; host or cells: COS-7 (monkey kidney fibroblast line)
T2 sequence (Q03181 211-439 limits assumed): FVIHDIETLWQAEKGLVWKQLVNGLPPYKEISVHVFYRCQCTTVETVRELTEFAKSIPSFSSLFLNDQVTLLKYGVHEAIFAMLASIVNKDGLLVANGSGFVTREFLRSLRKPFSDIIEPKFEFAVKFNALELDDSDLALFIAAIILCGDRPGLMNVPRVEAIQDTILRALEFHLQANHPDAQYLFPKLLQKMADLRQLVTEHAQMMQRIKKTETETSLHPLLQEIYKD
Procedure, shortened: as §1

[1] = biological target: T3, ATP-dependent potassium channels (K+ATP) (Rattus norvegicus, UniProt Q09429); assay: [3H]glibenclamide binding to ATP-dependent potassium channels of rat cerebral cortex; conditions: 1 h; 300 nM; specific displacement of [3H]glibenclamide 0.1 nM; read-out: KATP binding (300 nM)
T3 construct: the potassium channels derive from a rat's cerebral cortex; tissue CEREP; host or cells: rat cerebral cortex
T3 sequence (Q09429 whole entry): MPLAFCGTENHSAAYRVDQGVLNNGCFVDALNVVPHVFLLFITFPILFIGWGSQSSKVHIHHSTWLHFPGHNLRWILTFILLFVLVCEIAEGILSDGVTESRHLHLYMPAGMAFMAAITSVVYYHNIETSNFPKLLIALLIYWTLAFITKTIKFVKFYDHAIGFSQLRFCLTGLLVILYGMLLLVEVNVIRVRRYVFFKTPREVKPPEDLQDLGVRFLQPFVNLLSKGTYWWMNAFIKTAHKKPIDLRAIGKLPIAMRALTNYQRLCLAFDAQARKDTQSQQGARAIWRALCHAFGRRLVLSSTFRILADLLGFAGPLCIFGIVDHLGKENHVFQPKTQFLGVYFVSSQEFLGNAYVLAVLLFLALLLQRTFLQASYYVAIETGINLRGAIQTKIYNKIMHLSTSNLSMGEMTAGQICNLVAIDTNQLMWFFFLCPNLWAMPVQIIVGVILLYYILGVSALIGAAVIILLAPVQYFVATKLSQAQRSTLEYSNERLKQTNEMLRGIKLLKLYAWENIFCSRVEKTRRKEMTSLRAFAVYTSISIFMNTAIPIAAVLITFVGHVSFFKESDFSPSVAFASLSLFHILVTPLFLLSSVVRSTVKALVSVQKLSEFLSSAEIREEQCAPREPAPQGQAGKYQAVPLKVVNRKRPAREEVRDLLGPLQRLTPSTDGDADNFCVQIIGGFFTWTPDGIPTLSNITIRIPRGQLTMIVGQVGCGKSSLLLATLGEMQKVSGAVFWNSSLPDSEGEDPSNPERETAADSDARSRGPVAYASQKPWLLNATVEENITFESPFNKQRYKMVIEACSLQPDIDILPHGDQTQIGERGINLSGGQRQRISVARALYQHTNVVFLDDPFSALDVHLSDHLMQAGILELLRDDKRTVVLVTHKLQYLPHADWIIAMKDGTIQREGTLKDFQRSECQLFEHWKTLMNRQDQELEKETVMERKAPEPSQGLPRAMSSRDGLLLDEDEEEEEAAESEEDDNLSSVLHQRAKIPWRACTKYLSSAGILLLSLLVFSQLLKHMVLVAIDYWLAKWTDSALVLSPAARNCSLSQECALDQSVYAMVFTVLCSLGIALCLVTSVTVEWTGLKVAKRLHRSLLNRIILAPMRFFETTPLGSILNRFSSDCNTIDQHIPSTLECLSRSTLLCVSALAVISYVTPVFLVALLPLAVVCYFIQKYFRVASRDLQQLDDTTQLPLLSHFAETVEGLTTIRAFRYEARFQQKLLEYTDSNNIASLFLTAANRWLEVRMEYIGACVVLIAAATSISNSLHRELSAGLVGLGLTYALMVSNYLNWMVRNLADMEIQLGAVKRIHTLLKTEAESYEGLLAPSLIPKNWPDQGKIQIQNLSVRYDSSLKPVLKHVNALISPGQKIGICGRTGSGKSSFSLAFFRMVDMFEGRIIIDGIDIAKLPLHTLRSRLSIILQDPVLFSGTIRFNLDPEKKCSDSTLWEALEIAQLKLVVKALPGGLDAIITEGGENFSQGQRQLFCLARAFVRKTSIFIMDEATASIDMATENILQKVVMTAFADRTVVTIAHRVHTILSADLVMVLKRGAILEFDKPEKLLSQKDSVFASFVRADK
T3 sequence (P70673 whole entry partner): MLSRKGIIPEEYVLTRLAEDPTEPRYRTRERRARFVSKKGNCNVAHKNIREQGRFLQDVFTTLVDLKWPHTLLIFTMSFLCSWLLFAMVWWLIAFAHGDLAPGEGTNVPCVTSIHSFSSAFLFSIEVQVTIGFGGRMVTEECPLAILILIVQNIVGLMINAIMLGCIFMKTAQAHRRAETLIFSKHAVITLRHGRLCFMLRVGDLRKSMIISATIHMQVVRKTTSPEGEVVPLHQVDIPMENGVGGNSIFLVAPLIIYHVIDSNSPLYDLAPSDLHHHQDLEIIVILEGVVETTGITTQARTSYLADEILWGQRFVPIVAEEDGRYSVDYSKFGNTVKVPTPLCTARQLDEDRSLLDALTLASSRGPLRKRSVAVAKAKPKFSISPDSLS
Procedure, shortened: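 Rat cerebral cortex membranes incubated 1 h at 22° C with 0.1 nM [3H]glibenclamide; nonspecific binding defined with 1 μM unlabelled glibenclamide. Compounds tested at 3–300 nM; values are percent inhibition of specific binding.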

CCCCC(NC(=O)Cc1ccc(OC(C)(C)C(=O)NS(C)(=O)=O)cc1)c1ccccc1N1CCCCC1 (stereo not drawn) [Compound 52, N-[methylsulfonyl]-2-[4-[1-(1-(2-(1-piperidinyl)phenyl)pentyl)aminocarbonylmethyl]phenoxy]-2-methylpropanamide]
activation at 10 µM (hPPARγ): < 10% | activation at 10 µM (hPPARδ): < 10% | inhibition at 0.3 µM [1]: 83%
